Results on three molecules are retold here after publication PMC3711446 (2013).

Series [1] has as its system TAMRA-(CUG)6 (RNA, repeat) CUGCUGCUGCUGCUGCUG
Description: fluorescence titration. The conditions noted are these: PBS 1x (137 mM NaCl, 2.7 mM KCl); PBS pH 7.4, 20 °C; 20 nM RNA.

Another series deals with T1, MBNL1N, Cy3-labeled (UniProt Q9NR56 1-253).
T1 sequence: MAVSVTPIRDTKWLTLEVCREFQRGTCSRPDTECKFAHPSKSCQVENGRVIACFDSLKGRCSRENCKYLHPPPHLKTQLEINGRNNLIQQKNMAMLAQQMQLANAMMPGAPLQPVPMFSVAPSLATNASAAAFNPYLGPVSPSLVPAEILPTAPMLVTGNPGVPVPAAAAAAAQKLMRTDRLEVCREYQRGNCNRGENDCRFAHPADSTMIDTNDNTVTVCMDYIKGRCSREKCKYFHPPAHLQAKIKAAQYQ
Description: single-molecule TIRFM.

In series [1], `Nc1nc(N)nc(NCCCCNc2c3ccccc3nc3c(C(=O)NCCCNCCCNCCCNC(=O)c4cccc5c(NCCCCNc6nc(N)nc(N)n6)c6ccccc6nc45)cccc23)n1` showed a KD of 318 ± 15 nM. Same read-out and setting: with `CNC(=O)c1ccc2nc3ccccc3c(NCCCCNc3nc(N)nc(N)n3)c2c1` the figure was 66000 ± 2000 nM. On to GCUGCUGUUCGCUGCUG (structured_RNA, 3' TEG-biotin) [(CUG)4 TIRF construct], for which the Kd in the series with MBNL1N, Cy3-labeled was 3.1 ± 0.1 nM.
